Source: patent US20240197891A1, “PHARMACEUTICAL COMPOSITIONS COMPRISING POH DERIVATIVES” (UNIVERSITY OF SOUTHERN CALIFORNIA, priority 2021, published 2024)
Entries after “also recorded” stand apart in the source; their conditions may differ.

Columns and labels:
[1] = system: subcutaneous U-87 gliomas; test: Nude mouse subcutaneous glioma model; type: in vivo; conditions: local application via Q-tip, 1 cc/application/day, 8 weeks; 60 days
Method: Inhibition of tumor growth by butyryl-POH was studied in a nude mouse subcutaneous glioma model. Mice were injected with U-87 glioma cells (500,000 cells/injection) and allowed to form a palpable nodule over two weeks. Once palpable nodule was formed, the mice were treated with local application of various compounds as indicated in FIGS. 9A and 9B via a Q-tip (1 cc/application/day) over a period of 8 weeks.

[2] = system: ER stress (CHOP) in TMZ sensitive and resistant U251 glioma cells; test: Western blot of ER stress in U251 glioma cells; type: cell-based, human; conditions: 18 hr
Method: Western blots were performed after TMZ sensitive and resistant glioma cells were treated with the TMZ-POH conjugate for 18 hr. […] Activation of the proapoptotic protein CHOP was shown at concentrations as low as 60 uM of TMZ-POH.

[3] = system: human malignant glioma cells U87, A172 and U251; test: MTT cytotoxicity assays on U87, A172 and U251 cells (stated jointly); type: cell-based
Method: J. of Immunological Methods 65: 55 63, 1983. […] Invasion inhibition may be studied by Boyden chambers.
Then U87, A172 and U251 cells were treated with dimethyl celecoxib bisPOH carbamate (POH-DMC) (e.g., synthesized by the method in Example 1), and the MTT cytotoxicity assays performed (FIG. 2).
Then TMZ-resistant glioma cell lines U87, A172 and U251 cells were treated with temozolomide POH carbamate (POH-TMZ) (e.g., synthesized by the method in Example 3).

[4] = system: TMZ resistant (U251TR) U251 cells; test: Colony forming assay, TMZ resistant U251TR cells; type: cell-based, human
Method: (§1) Colony forming assays were carried out after cells were treated with TMZ alone, POH alone, and the TMZ-POH conjugate. […] Cancer Lett. 2011 Mar. 28; 302(2):100-8.

U251 human glioma cells = test: MTT cytotoxicity assay, U251 cells
Excerpt: (§2) In vitro efficacy of the present composition can be determined using methods well known in the art. For example, the cytotoxicity of the present monoterpene (or sesquiterpene) and/or the therapeutic agents may be studied by MTT [3-(4,5-dimethylthiazol-2-yl)-2,5-diphenyl tetrazolium bromide] cytotoxicity assay. MTT assay is based on the principle of uptake of MTT, a tetrazolium salt, by metabolically active cells where it is metabolized into a blue colored formazan product, which can be read spectrometrically. J. of Immunological Methods 65: 55 63, 1983. The cytotoxicity of the present monoterpene (or sesquiterpene) derivative and/or the therapeutic agents may be studied by colony formation assay. Functional assays for inhibition of VEGF secretion and IL-8 secretion may be performed via ELISA. Cell cycle block by the present monoterpene (or sesquiterpene) derivative and/or the therapeutic agents may be studied by standard propidium iodide (PI) staining and flow cytometry. Invasion inhibition may be studied by Boyden chambers. In this assay a layer of reconstituted basement membrane, Matrigel, is coated onto chemotaxis filters and acts as a barrier to the migration of cells in the Boyden chambers. Only cells with invasive capacity can cross the Matrigel barrier. Other assays include, but are not limited to cell viability assays, apoptosis assays, and morphological assays.
(§3) To compare the cytotoxicity of Rolipram POH Carbamate (POH-Rolipram) (e.g., synthesized by the method in Example 5) with rolipram, […] inducing differentiation and apoptosis in glioma cells, A172, U87, U251 and LN229 human glioma cells were treated with either POH-Rolipram or rolipram for 48 hours.
(§4) MTT cytotoxicity assays were carried out after cells were treated with the TMZ-POH conjugate. The MTT cytotoxicity assays were carried out as described in Chen T C, et al. Green tea epigallocatechin gallate enhances therapeutic efficacy of temozolomide in orthotopic mouse glioblastoma models. Cancer Lett. 2011 Mar. 28; 302(2):100-8.

[5] = system: brain endothelial cells (BEC); test: MTT cytotoxicity assay, brain endothelial cells; type: cell-based
Excerpt: (§5) Cancer Lett. 2011 Mar. 28; 302(2):100-8.

[6] = system: TMZ resistant cells (U251TR); test: MTT cytotoxicity assay, U251TR cells
Method: as §4

[7] = system: tumor brain endothelial cells (TuBEC); test: MTT cytotoxicity assay, tumor brain endothelial cells; type: cell-based
Excerpt: as §5

[8] = system: USC-04 glioma cancer stem cells; test: MTT cytotoxicity assay, USC-04 glioma cancer stem cells; type: cell-based; conditions: USC-04, MTT
Excerpt: as §5

normal astrocytes = test: MTT cytotoxicity assay, normal astrocytes; conditions: listed as TMZ-POH
Method: as §4

[9] = system: TMZ sensitive (U251) cells; test: Colony forming assay, TMZ sensitive U251 cells; type: cell-based, human
Method: as §1

[10] = system: USC-02 glioma cancer stem cells; test: MTT cytotoxicity assay, USC-02 glioma cancer stem cells; type: cell-based; conditions: USC-02, MTT
Excerpt: as §5

LN229 human glioma cells = test: cells
Excerpt: as §2, §3

[11] = system: A172, U87, U251 and LN229 human glioma cells; test: MTT assay, POH-Rolipram versus rolipram across glioma cell types (stated jointly); type: cell-based; conditions: each of A172, U87, U251, LN229; 48 hours
Excerpt: as §2, with “assays. […]” for “assays.”

U87 human glioma cells = test: MTT cytotoxicity assay, U87 cells; type: cell-based; conditions: U-87 cells, 48 hours
Excerpt: as §2, with “assays. […]” for “assays.”

A172 human glioma cells = test: MTT cytotoxicity assay, A172 cells; type: cell-based; conditions: A-172 cells, 48 hours
Excerpt: as §2, with “assays. […]” for “assays.”

## C=C(C)C1CC=C(COC(=O)CCC)CC1 (stereo not shown) [Butyryl-POH]
[1]
  inhibition of tumor growth: greatest inhibition of tumor growth

## C=C(C)C1CC=C(COC(=O)NC(=O)c2ncn3c(=O)n(C)nnc23)CC1 (stereo not shown) [POH-TMZ]
[2]; TMZ sensitive and resistant U251 cells
  ER stress (ERS) induction: induces ER stress
[2]; western blot
  lowest concentration showing activation of the proapoptotic protein CHOP: 60 µM
[3]
  cytotoxicity / kill rates (MTT): substantially higher kill rates
[4]
  cytotoxicity (colony forming assay): demonstrated cytotoxicity
U251 human glioma cells; TMZ sensitive U251 cells, Example 9
  cytotoxicity (MTT): demonstrated cytotoxicity
[5]; confluent BEC
  cytotoxicity (MTT): did not induce significant cytotoxicity
[5]; subconfluent BEC, high concentrations
  cytotoxicity (MTT): Mild to moderate cytotoxicity
[6]
  cytotoxicity (MTT): demonstrated cytotoxicity
[7]
  cytotoxicity (MTT): did not induce significant cytotoxicity
[8]
  IC50: 150 µM
Normal astrocytes
  cytotoxicity (MTT): not towards normal astrocytes; also recorded: did not induce significant cytotoxicity
[9]; TMZ sensitive U251 cells
  cytotoxicity (colony forming assay): demonstrated cytotoxicity
[9]; U251 and U251TR cells
  potency in the colony forming assays compared to POH alone: substantially greater potency compared to POH alone
[10]
  IC50: 60 µM

## C=C(C)C1CC=C(COC(=O)N2CC(c3ccc(OC)c(OC4CCCC4)c3)CC2=O)CC1 (stereo not shown) [POH-rolipram, 4-(3-cyclopentyloxy-4-methoxyphenyl)-2-oxo-pyrrolidine-1-carboxylic acid 4-isopropenyl cyclohex-1-enylmethyl ester]
LN229 human glioma cells
  cytotoxicity at 10 uM: ~100%
LN229 human glioma cells; LN229 cells, MTT, 48 hours
  IC50: 100 µM
[11]
  kill rates (MTT): substantially higher kill rates compared to rolipram alone
U87 human glioma cells
  IC50: 180 µM
U251 human glioma cells
  cytotoxicity at 100 uM: ~100%
U251 human glioma cells; U251 cells, MTT, 48 hours
  IC50: 50 µM
A172 human glioma cells
  IC50: 50 µM
